Results taken from US7652013B2, “Inhibitors of stearoyl-CoA desaturase” (Hoffman-La Roche Inc., priority 2007, dated 2010).

Key:
[1] = molecular target: T1, SCD1 (Mus musculus, UniProt P13516); assay: SCD assay: release of tritiated water from desaturation of 9,10-3H-stearoyl CoA, mouse liver microsomes; type: biochemical
T1 construct: Mouse liver microsomes, prepared from mice fed a high carbohydrate diet, were a source of the SCD; from tissue; host or cells: mouse liver microsomes (mice fed a high carbohydrate diet)
T1 sequence (P13516 1-355): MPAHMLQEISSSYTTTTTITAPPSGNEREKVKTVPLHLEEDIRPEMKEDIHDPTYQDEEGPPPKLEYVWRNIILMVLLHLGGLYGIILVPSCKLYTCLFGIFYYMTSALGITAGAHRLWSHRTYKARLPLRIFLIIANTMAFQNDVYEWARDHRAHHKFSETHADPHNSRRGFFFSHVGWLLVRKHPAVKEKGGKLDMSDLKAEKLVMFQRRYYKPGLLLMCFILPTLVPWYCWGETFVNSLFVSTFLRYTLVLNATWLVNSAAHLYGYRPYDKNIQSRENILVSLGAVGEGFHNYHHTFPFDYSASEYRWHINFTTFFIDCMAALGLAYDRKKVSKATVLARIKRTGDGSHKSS
Text: Stearoyl CoA desaturase activity was monitored by a modification of the acyl carrier protein assay described by B. R. Talamo and K. Bloch in Anal. Biochem. 1968, 29, 300-304. The SCD assay monitors the release of tritiated water from the desaturation of 9,10-^3H-stearoyl CoA.
Mouse liver microsomes, prepared from mice fed a high carbohydrate diet, were a source of the SCD and cyt b5 and cyt b5 reductase, necessary accessory proteins for the coupled reaction. Reaction mixtures for compound titrations contained 50 mM Tris HCl pH 7.5, 100 mM NaCl, 0.165 mg/ml BSA, 2.4% DMSO, 1 mM NADH, 0.03% T-20, and 300 nM (9,10) ^3H-stearoyl CoA (Perkin-Elmer). Reactions were initiated upon the addition of 4 ug/ml SCD microsomes. Incubations were terminated after 25 minutes at room temperature with cold 6% TCA. After standing 10 minutes at 4 deg C., samples were centrifuged 15 minutes at 4000 rpm to pellet precipitated protein. Supernatants were added to microtiter plates containing suspensions of activated charcoal (Darco G-60, Fisher Scientific) and mixed by inversion. Plates were then centrifuged to separate ^3H—H2O product from charcoal-bound reactants. Supernatants were quantitated in a Perkin Elmer Topcount 384 after solubilization in ScintiSafe Plus 50% (Fisher Scientific).
Inhibition (%) of SCD activity by compounds was calculated according to the following formula: % Inhibition=100*[1−(CPMsample−CPMblank)/(CPMtotal−CPMblank)]

| SMILES | IC50 [1] [µM] | melting point |
| --- | --- | --- |
| O=c1cc(N2CCN(Cc3ccc(F)c(F)c3)CC2)nc[nH]1 [Example 21, 6-[4-(3,4-Difluoro-benzyl)-piperazin-1-yl]-3H-pyrimidin-4-one] | ≤ 1 |  |
| O=c1cc(N2CCN(Cc3cc(Br)ccc3O)CC2)nc[nH]1 [Example 25, 6-[4-(5-Bromo-2-hydroxy-benzyl)-piperazin-1-yl]-3H -pyrimidin-4-one] | ≤ 1 |  |
| O=c1cc(N2CCN(Cc3cccc([N+](=O)[O-])c3)CC2)nc[nH]1 [Example 26, 6-[4-(3-Nitro-benzyl)-piperazin-1-yl]-3H-pyrimidin-4-one] | ≥ 1.1 |  |
| O=c1cc(N2CCN(Cc3cc(Cl)ccc3[N+](=O)[O-])CC2)nc[nH]1 [Example 28, 6-[4-(5-Chloro-2-nitro-benzyl)-piperazin-1-yl]-3H -pyrimidin-4-one] | ≤ 1 |  |
| O=c1cc(N2CCN(Cc3ccccc3O)CC2)nc[nH]1 [Example 30, 6-[4-(2-Hydroxy-benzyl)-piperazin-1-yl]-3H-pyrimidin-4-one] | ≥ 1.1 |  |
| O=c1cc(N2CCN(Cc3cc(OC(F)(F)F)ccc3O)CC2)nc[nH]1 [Example 31, 6-[4-(2-Hydroxy-5-trifluoromethoxy-benzyl)-piperazin-1-yl]-3H -pyrimidin-4-one] | ≤ 1 |  |
| O=c1cc(N2CCN(Cc3ccc(F)cc3Cl)CC2)nc[nH]1 [Example 32, 6-[4-(2-Chloro-4-fluoro-benzyl)-piperazin-1-yl]-3H -pyrimidin-4-one] | ≥ 1.1 | 255 to 256 °C (dec.) |
| O=c1cc(N2CCN(Cc3cccc(F)c3)CC2)nc[nH]1 [Example 33, 6-[4-(3-Fluoro-benzyl)-piperazin-1-yl]-3H-pyrimidin-4-one] | ≥ 1.1 | 273 to 275 °C (dec.) |
| O=c1cc(N2CCN(Cc3ccc(Br)cc3F)CC2)nc[nH]1 [Example 34, 6-[4-(4-Bromo-2-fluoro-benzyl)-piperazin-1-yl]-3H -pyrimidin-4-one] | ≥ 1.1 | 275 to 276 °C |
| Cc1cccc(CN2CCN(c3cc(=O)[nH]cn3)CC2)c1O [Example 38, 6-[4-(2-Hydroxy-3-methyl-benzyl)-piperazin-1-yl]-3H -pyrimidin-4-one] | ≤ 1 |  |
| Cc1ccc(O)c(CN2CCN(c3cc(=O)[nH]cn3)CC2)c1 [Example 39, 6-[4-(2-Hydroxy-5-methyl-benzyl)-piperazin-1-yl]-3H -pyrimidin-4-one] | ≤ 1 |  |
| C=CCc1cccc(CN2CCN(c3cc(=O)[nH]cn3)CC2)c1O [Example 40, 6-[4-(3-Allyl-2-hydroxy-benzyl)-piperazin-1-yl]-3H -pyrimidin-4-one] | ≤ 1 |  |
| O=c1cc(N2CCN(Cc3cccc(F)c3O)CC2)nc[nH]1 [Example 42, 6-[4-(3-Fluoro-2-hydroxy-benzyl)-piperazin-1-yl]-3H -pyrimidin-4-one] | ≤ 1 |  |
| O=c1cc(N2CCN(Cc3cc(F)ccc3O)CC2)nc[nH]1 [Example 43, 6-[4-(5-Fluoro-2-hydroxy-benzyl)-piperazin-1-yl]-3H -pyrimidin-4-one] | ≤ 1 |  |
| O=c1cc(N2CCN(Cc3cc(F)cc(F)c3O)CC2)nc[nH]1 [Example 44, 6-[4-(3,5-Difluoro-2-hydroxy-benzyl)-piperazin-1-yl]-3H-pyrimidin-4-one] | ≤ 1 |  |
| O=c1cc(N2CCN(Cc3cccc(Cl)c3O)CC2)nc[nH]1 [Example 45, 6-[4-(3-Chloro-2-hydroxy-benzyl)-piperazin-1-yl]-3H -pyrimidin-4-one] | ≤ 1 |  |
| O=c1cc(N2CCN(Cc3cc(Cl)ccc3O)CC2)nc[nH]1 [Example 46, 6-[4-(5-Chloro-2-hydroxy-benzyl)-piperazin-1-yl]-3H -pyrimidin-4-one] | ≤ 1 |  |
| Cc1cc(Cl)cc(CN2CCN(c3cc(=O)[nH]cn3)CC2)c1O [Example 47, 6-[4-(5-Chloro-2-hydroxy-3-methyl-benzyl)-piperazin-1-yl]-3H-pyrimidin-4-one] | ≤ 1 |  |
| O=c1cc(N2CCN(Cc3cccc(Br)c3O)CC2)nc[nH]1 [Example 48, 6-[4-(3-Bromo-2-hydroxy-benzyl)-piperazin-1-yl]-3H -pyrimidin-4-one] | ≤ 1 |  |

Next, values leading:

| IC50 [1] [µM] | melting point | SMILES |
| --- | --- | --- |
| ≤ 1 |  | O=c1cc(N2CCN(Cc3ccc(F)c(Cl)c3)CC2)nc[nH]1 [Example 22, 6-[4-(3-Chloro-4-fluoro-benzyl)-piperazin-1-yl]-3H -pyrimidin-4-one] |
| ≥ 1.1 |  | O=c1cc(N2CCN(Cc3cc(C(F)(F)F)ccc3Cl)CC2)nc[nH]1 [Example 23, 6-[4-(2-Chloro-5-trifluoromethyl-benzyl)-piperazin-1-yl]-3H-pyrimidin-4-one] |
| ≤ 1 |  | O=c1cc(N2CCN(Cc3cc(Cl)cc(Cl)c3O)CC2)nc[nH]1 [Example 24, 6-[4-(3,5-Dichloro-2-hydroxy-benzyl)-piperazin-1-yl]-3H-pyrimidin-4-one] |
| ≤ 1 |  | O=c1cc(N2CCN(Cc3ccccc3[N+](=O)[O-])CC2)nc[nH]1 [Example 27, 6-[4-(2-Nitro-benzyl)-piperazin-1-yl]-3H-pyrimidin-4-one] |
| ≤ 1 |  | O=c1cc(N2CCN(Cc3cc([N+](=O)[O-])ccc3O)CC2)nc[nH]1 [Example 29, 6-[4-(2-Hydroxy-5-nitro-benzyl)-piperazin-1-yl]-3H -pyrimidin-4-one] |
| ≤ 1 |  | Cc1c(Br)cccc1CN1CCN(c2cc(=O)[nH]cn2)CC1 [Example 35, 6-[4-(3-Bromo-2-methyl-benzyl)-piperazin-1-yl]-3H -pyrimidin-4-one] |
| ≥ 1.1 |  | O=c1cc(N2CCN(Cc3ccccc3-c3ccccc3)CC2)nc[nH]1 [Example 36, 6-(4-Biphenyl-2-ylmethyl-piperazin-1-yl)-3H-pyrimidin-4-one] |
| ≥ 1.1 |  | O=c1cc(N2CCN(Cc3cccc4c3OCO4)CC2)nc[nH]1 [Example 37, 6-(4-Benzo[1,3]dioxol-4-ylmethyl-piperazin-1-yl)-3H -pyrimidin-4-one] |
| ≤ 1 |  | CC(C)(C)c1cccc(CN2CCN(c3cc(=O)[nH]cn3)CC2)c1O [Example 41, 6-[4-(3-tert-Butyl-2-hydroxy-benzyl)-piperazin-1-yl]-3H-pyrimidin-4-one] |
| ≤ 1 |  | O=c1cc(N2CCN(Cc3cc(Br)cc(Br)c3O)CC2)nc[nH]1 [Example 49, 6-[4-(3,5-Dibromo-2-hydroxy-benzyl)-piperazin-1-yl]-3H-pyrimidin-4-one] |
| ≤ 1 |  | O=c1cc(N2CCN(Cc3cc(Cl)cc(Br)c3O)CC2)nc[nH]1 [Example 50, 6-[4-(3-Bromo-5-chloro-2-hydroxy-benzyl)-piperazin-1-yl]-3H-pyrimidin-4-one] |
| ≤ 1 |  | O=c1cc(N2CCN(Cc3cc(I)ccc3O)CC2)nc[nH]1 [Example 51, 6-[4-(2-Hydroxy-5-iodo-benzyl)-piperazin-1-yl]-3H -pyrimidin-4-one] |
| ≥ 1.1 |  | C=CCc1cc(CN2CCN(c3cc(=O)[nH]cn3)CC2)c(O)c(OC)c1 [Example 52, 6-[4-(5-Allyl-2-hydroxy-3-methoxy-benzyl)-piperazin-1-yl]-3H -pyrimidin-4-one] |
| ≤ 1 |  | COc1cc(Cl)cc(CN2CCN(c3cc(=O)[nH]cn3)CC2)c1O [Example 53, 6-[4-(5-Chloro-2-hydroxy-3-methoxy-benzyl)-piperazin-1-yl]-3H -pyrimidin-4-one] |
| ≤ 1 |  | COc1cc(I)cc(CN2CCN(c3cc(=O)[nH]cn3)CC2)c1O [Example 54, 6-[4-(2-Hydroxy-5-iodo-3-methoxy-benzyl)-piperazin-1-yl]-3H -pyrimidin-4-one] |
| ≥ 1.1 |  | COc1cc([N+](=O)[O-])cc(CN2CCN(c3cc(=O)[nH]cn3)CC2)c1O [Example 55, 6-[4-(2-Hydroxy-3-methoxy-5-nitro-benzyl)-piperazin-1-yl]-3H-pyrimidin-4-one] |
